Data as given in US7910747B2, “Phosphonate and phosphinate pyrazolylamide glucokinase activators” (Bristol-Myers Squibb Company, priority 2006, dated 2011).

Key:
human glucokinase (GK) = target: T1, human glucokinase (GK) (Homo sapiens, UniProt P35557); assay: Glucokinase tandem enzymatic assay; assay type: biochemical; details: 12 mM glucose; for EC50: EC50 = concentration to achieve 50% of full activation; for Emax: expressed as % of basal activation, EC50 could not be calculated from the activation curves, read-out: Maximal activation (%) Human Glucokinase @ 12 mM Glucose
T1 construct: Full-length human hepatic GK (untagged) was expressed in BL21 STAR (DE3)pLysS cells; made in house; host or cells: E. coli BL21 STAR (DE3)pLysS
T1 sequence (P35557 1-466 isoform P35557-2): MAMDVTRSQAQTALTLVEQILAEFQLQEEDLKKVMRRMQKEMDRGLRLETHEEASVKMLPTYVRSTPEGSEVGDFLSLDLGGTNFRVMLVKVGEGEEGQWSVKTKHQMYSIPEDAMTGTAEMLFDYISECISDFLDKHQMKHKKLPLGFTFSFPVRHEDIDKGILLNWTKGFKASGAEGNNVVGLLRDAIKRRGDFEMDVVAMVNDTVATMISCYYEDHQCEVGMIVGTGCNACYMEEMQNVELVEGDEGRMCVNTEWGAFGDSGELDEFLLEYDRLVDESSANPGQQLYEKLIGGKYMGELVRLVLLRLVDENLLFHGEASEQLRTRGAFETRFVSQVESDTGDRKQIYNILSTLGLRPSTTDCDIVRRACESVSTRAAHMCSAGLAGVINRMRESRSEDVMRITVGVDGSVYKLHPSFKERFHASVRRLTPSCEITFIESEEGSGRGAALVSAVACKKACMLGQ
Experimental: Enzymatic activity of human glucokinase (GK) was measured by incubating GK, ATP, and glucose for discrete time periods followed by quenching with EDTA (ethylenediamine tetra-acetic acid). Relative amounts of product glucose-6-phosphate (G6P) were measured by then running a detection assay using G6P dehydrogenase and measuring the conversion of ThioNAD (thio-nicotinamide adenine dinucleotide) to ThioNADH (thio-dihydronicotinamide adenine dinucleotide) at a wavelength of 405 nm. This ‘uncoupled’ enzymatic reaction is denoted as the GK ‘tandem’ assay. Activation of GK by compounds can be assessed using this assay. The GK tandem assay protocol described below was followed using a range of activator compound concentrations from 0 to 100 μM at 5 and 12 mM of glucose. […] To initiate the GK reaction, magnesium-ATP (3 mM final concentration) was added to GK in buffer (final buffer conditions of 25 mM HEPES buffer, pH 7.1, containing 1 mM dithiothreitol and 5% DMSO). The total reaction volume was 20 μL. The reaction was allowed to proceed for ten minutes and was then quenched with 5 μL EDTA; 45 mM final). […] Absorbance was read, background glucose-6-phosphate levels were subtracted, after which activation was calculated as a percentage of control activity. Control activity was determined using GK in the presence of vehicle (DMSO), with background glucose-6-phosphate subtracted. Background glucose-6-phosphate was determined by pre-quenching GK with EDTA prior to reaction initiation with ATP.
Full-length human hepatic GK (untagged) was expressed in BL21 STAR (DE3)pLysS cells (Invitrogen) at 25° C. as described by Mookhtiar et al. (1). The protein was purified essentially as described by Lange (2) with a slight modification. […] The resulting pellet was resuspended in buffer, dialyzed, and applied directly to a Q-Sepharose (Sigma) column followed by elution with a linear 100-600 mM KCl gradient. GK containing fractions were pooled, dialyzed overnight vs. 25 mM Hepes pH 7.2/1 mM MgCl2/1 mM EDTA/0.1 M KCl/1 mM DTT, then dialyzed again with same buffer with 10% glycerol added.

[1] = system: male DIO (diet-induced obese) C57BL/6J mice; assay: Oral glucose tolerance test (OGTT) in DIO mice; assay type: in vivo; details: 60 min before 2 g/kg oral glucose, DIO C57BL/6J mice; for Reduction in Glucose AUC at 30 mg/kg dose: 30 mg/kg oral
Experimental: […]. Mice were fasted overnight before use for experiments. A test compound or vehicle (either: 1) 40% PEG 400+10% Cremophore +50% water or 2) 10% dimethyl acetamide +10% ethanol +10% Cremophore +70% water) was given orally 60 min before oral administration of a glucose solution at a dose of 2 g/kg body weight (oral glucose tolerance test; OGTT). […].

| Compound | EC50 (human glucokinase (GK)) [nM] | also measured |
| --- | --- | --- |
| CCOP(=O)(CSc1cnc(NC(=O)[C@H](CC2CCCC2)c2ccc(S(C)(=O)=O)cc2)s1)OCC [Example 22] | 402 |  |
| CCOP(=O)(Cc1ccc(NC(=O)c2cc(Oc3ccc(S(C)(=O)=O)cc3)cc(O[C@@H](C)COC)c2)nc1)OCC [Example 29] | 98 | Reduction in Glucose AUC at 30 mg/kg dose [1]: 66-78% |
| CCOP(=O)(Cc1csc(NC(=O)c2nn(CC3CC3)c3cc(S(C)(=O)=O)ccc23)n1)OCC [Example 86] |  | Emax (human glucokinase (GK)): 141% |
| CCOP(=O)(Cc1csc(NC(=O)c2cc(OCCCS(C)(=O)=O)cc(O[C@@H](C)COC)c2)n1)OCC [Example 139] | 467 |  |
| CCOP(=O)(Cc1csc(NC(=O)c2cc(OC(C)C)cc(O[C@H]3CCN(C(C)=O)C3)c2)n1)OCC [Example 112] | 428 |  |
| CCOP(=O)(Cc1csc(NC(=O)c2cc(CN3CCOC3=O)cc(OC)c2)n1)OCC [Example 65] |  | Emax (human glucokinase (GK)): 162% |
| CCOP(=O)(Cc1csc(NC(=O)c2cc(OC(C)C)cc(O[C@@H]3CCN(C(=O)OC)C3)c2)n1)OCC [Example 116] | 469 |  |
| CCOP(=O)(Cc1nc(NC(=O)c2cc(Oc3ccc(S(C)(=O)=O)cc3)cc(O[C@@H](C)COC)c2)sc1Cl)OCC [Example 50] | 22 |  |
| CCOP(=O)(Cn1ccc(NC(=O)c2cc(O[C@@H](C)COC)cc(O[C@@H](C)Cc3ccccc3)c2)n1)OCC [Example 33] | 26 |  |
| CCOP(=O)(Cn1ccc(NC(=O)c2cc(Oc3ccc(S(C)(=O)=O)cc3)cc(O[C@@H](C)COC)c2)n1)OCC [Example 32] | 65 | Reduction in Glucose AUC ([1]; 30 μmol/kg oral): 79% @ 30 μmol/kg |
| CCOP(=O)(CS(=O)(=O)c1cnc(NC(=O)[C@H](CC2CCCC2)c2ccc(S(C)(=O)=O)cc2)s1)OCC [Example 23] |  | Emax (human glucokinase (GK)): 150% |
| COC[C@H](C)Oc1cc(Oc2ccc(S(C)(=O)=O)cc2)cc(C(=O)Nc2nc(CP3(=O)OCCCO3)cs2)c1 [Example 169] | 9 |  |
| CCOP(=O)(Cc1csc(NC(=O)c2cc(OCCSC)cc(O[C@@H](C)COC)c2)n1)OCC [Example 134] | 476 |  |
| CCOP(=O)(/C=C/c1cnc(NC(=O)[C@H](CC2CCCC2)c2ccc(S(C)(=O)=O)cc2)s1)OCC [Example 35] |  | Emax (human glucokinase (GK)): 133% |
| CCOP(=O)(Cc1csc(NC(=O)c2cc(O[C@@H](C)CO)cc(O[C@@H](C)Cc3ccccc3)c2)n1)OCC [Example 137] | 21 |  |
| CCOP(=O)(Cc1cnc(NC(=O)[C@H](CC2CCOCC2)c2ccc(S(=O)(=O)C3CC3)cc2)cn1)OCC [Example 44] | 564 | Reduction in Glucose AUC at 30 mg/kg dose [1]: 62-80% |
| CCOP(=O)(Cc1csc(NC(=O)c2cc(OC(C)C)cc(O[C@H]3CCN(S(C)(=O)=O)C3)c2)n1)OCC [Example 113] | 437 |  |
| COC[C@H](C)Oc1cc(Oc2ccc(S(C)(=O)=O)cc2)cc(C(=O)Nc2nc(CP(C)(=O)O)cs2)c1 [Example 56] | 534 |  |
| CCOP(=O)(Cc1csc(NC(=O)c2cc(Oc3ccc(S(C)(=O)=O)cc3)cc(O[C@@H](C)COC)c2)n1)OCC [Example 37] | 34 | Reduction in Glucose AUC at 30 mg/kg dose [1]: 88% |
| CCOP(=O)(Cc1csc(NC(=O)c2ccc3c(c2)OCCO3)n1)OCC [Example 79] |  | Emax (human glucokinase (GK)): 133% |
| CCOP(=O)(Cc1csc(NC(=O)c2cc(O[C@@H](C)COC)cc(O[C@@H](C)Cc3ccccc3)c2)n1)OCC [Example 145] | 24 | Reduction in Glucose AUC at 30 mg/kg dose [1]: 71% |
| CCOP(=O)(Cc1nc(NC(=O)c2cc(Oc3ccc(S(C)(=O)=O)cc3)cc(O[C@@H](C)COC)c2)sc1Br)OCC [Example 51] | 15 |  |
| CCOP(=O)(Cc1csc(NC(=O)Cc2ccc(OC)cc2OC)n1)OCC [Example 74] |  | Emax (human glucokinase (GK)): 142% |
| CCOP(=O)(Cn1ccc(NC(=O)c2cc(OCC(F)(F)c3ccccc3)cc(OC(C)C)c2)n1)OCC [Example 122] | 23 |  |
| CCOP(=O)(Cc1csc(NC(=O)c2cc(OCC(F)(F)c3ccccc3)cc(OC(C)C)c2)n1)OCC [Example 123] |  | Emax (human glucokinase (GK)): 135% |
| CCO[P@](C)(=O)Cc1csc(NC(=O)c2cc(Oc3ccc(S(C)(=O)=O)cc3)cc(O[C@@H](C)COC)c2)n1 (single isomer, unassigned) [Example 54] | 49 | Reduction in Glucose AUC at 30 mg/kg dose [1]: 68-82% |
| CCOP(=O)(Cc1csc(NC(=O)c2cc(OC(C)C)cc(OC(C)C)c2)n1)OCC [Example 148] | 178 | Reduction in Glucose AUC at 30 mg/kg dose [1]: 60% |
| CCOP(=O)(Cc1csc(NC(=O)c2cc(OCC(O)c3ccccc3)cc(OC(C)C)c2)n1)OCC (centres unmarked) [Example 121] |  | Emax (human glucokinase (GK)): 126% |
